Tests used:
[1] = tested on: P. aeruginosa; experiment: Minimal inhibitory concentration (MIC), Example V; assay type: cell-based; details: Pseudomonas aeruginosa
Method: (§1) THE ANTIBACTERIAL SCREEN - EXAMPLE V
(§2) THE ANTIBACTERIAL SCREEN - EXAMPLES W - Z (Autotiter IV)
(§3) (a) Compounds. All compounds to be screened are weighed (approx. 10 mg) on the day preceding the test date. Each compound is solubilized on the day of assay in appropriate solvent and diluted automatically in the Autotiter IV with distilled water (buffer can be employed here also).
(§4) Bacteria: Staphylococcus aureas Smith (or 209), Escherichia coli AB 1932-1, 1100/B22 and Vogel, Streptococcus pyogenes C203 Salmonella typhimurium 14028, Bacillus subtilis 6051-1, Klebsiella pneumoniae 10031, Pseudomonas aeruginosa 9027, Bordetella bronchiseptica 4617 and Staphylococcus epidermidis 12228.
(§5) (c) Inocula. Prior to utilization in the Autotiter IV, all bacteria are cultured for 18-20 hr. (37° C) in tryptose phosphate broth (TP), except, S. pyogenes C203, which is cultured in Brain Heart Infusion broth plus 10% normal horse serum. Immediately prior to testing, each culture is adjusted to an optical density of 0.10 (650 nm), employing a Bausch & Lomb Spectronic 20, and diluted subsequently into double strength medium to approximately 2 × 10^5 viable organisms per ml.
(§6) 1. An automated injector system dispenses 0.05 ml of diluent (sterile H2 O or buffer) to all cups of the autotiter trays from rows 2 through 7.
(§7) 2. The loops (for sequential dilutions of the compounds are moistened by immersion into 70% ethyl alcohol. After removal of excess alcohol by blotting, the loops are moved to the first row of cups in the autotray containing 0.10 ml of the compound to be diluted and tested (usually, this initial concentration is 500 to 1000 mcg/ml, but can be varied upward or downward). The loops are lowered and sequentially transfer the diluted solutions of the compound through row 7.
(§8) Immediately after each dilution is made, each cup is automatically inoculated with 0.05 ml of the appropriate test organism. This inoculation derives from a second injector system containing the organism in double-strength medium. The total operation consists of the automatic dilution of a single compound in each of 8 rows of the Autotiter try.
(§9) After these operations, we reverse the tray and a second compound is diluted over the other one-half of the tray and inoculated, subsequently, with 8 organisms. Thus, for each Autotiter Tray, two compounds are screened against 8 different organisms at dilutions ranging from 1:2 to 1:128.
(§10) (e) Incubation. The inoculated Autotiter trays are incubated at 37° C for 18 - 20 hr. At the end of this period, each tray is examined for the presence or absence of growth (turbidity). The lowest concentration of the compound inhibiting growth is recorded as the minimal inhibitory concentration (MIC).

[2] = tested on: S. aureus; experiment: Minimal inhibitory concentration (MIC), Example V; assay type: cell-based; details: Staphylococcus aureus
Method: as §1, §2, §3, §4, §5, §6, §7, §8, §9, §10

[3] = tested on: S. pyogenes; experiment: Minimal inhibitory concentration (MIC), Example V; assay type: cell-based; details: Streptococcus pyogenes
[4] = tested on: A. niger; experiment: Minimal inhibitory concentration (MIC), Example V; assay type: cell-based; details: Aspergillus niger
Source text: (§11) MINIMAL INHIBITORY CONCENTRATION OF 2-AMINO-2-METHYL-1-PROPYL
(§12) ^a Minimal inhibitory concentration expressed in parts per million
(§13) sequence inhibited the test organism at the higher concentrations.
as §1

[5] = tested on: E. coli; experiment: Minimal inhibitory concentration (MIC), Example V; assay type: cell-based; details: Escherichia coli
Source text: as §11, §12, §13, §1

[6] = tested on: T. mentagrophytes; experiment: Minimal inhibitory concentration (MIC), Example V; assay type: cell-based; details: Trichophyton mentagrophytes
Source text: as §11, §12, §13, §1

[7] = tested on: C. albicans; experiment: Minimal inhibitory concentration (MIC), Example V; assay type: cell-based; details: Candida albicans
Source text: MINIMAL INHIBITORY CONCENTRATION OF 2-AMINO-2-METHYL-1-PROPYL […]
as §1

[8] = tested on: P. aeruginosa; experiment: Contact germicidal efficiency (sterilization time); assay type: cell-based, Pseudomonas aeruginosa
Method: (§14) CONTACT GERMICIDAL EFFICIENCY OF N-CHLORAMINES AS A FUNCTION
(§15) ^a Time intervals screened 0.5, 1, 2, 3, 4 and 5 minutes.
(§16) ^a Time intervals screened 0.5, 1, 2, 3, 4, 5, 6, 7, 8, 9 and 10
(§17) ^a Time intervals screened 0.5, 1, 2, 3, 4, and 5 minutes.
(§18) ^b Time intervals screened 0.5, 1, 2, 3, 4, 5, 6, 7, 8, 9 and 10
(§19) Immediately preceding the screen, the compound is weighed and diluted with a buffer or other solvent to give the final concentration desired. The buffer or solvent chosen depends on the conditions of the screen and could be one of the following: 0.1 M NaOAc, pH 4.6; 0.1 M NaH2 PO4, pH 7.0; 0.1 M Na2 B4 O7, pH 8.8; 35% methanol in one of the aforementioned buffers; 10% Triton × 100 in buffer, etc.
(§20) The positive chlorine concentration of the test solution is then determined iodometrically.
(§21) Media used for the Screen are Nutrient Broth, BBL# 11479 and Nutrient Agar, BBL# 11472 prepared according to label directions. The broth is dispensed in 75 ml amounts of flasks for overnight cultures and in 5 ml amounts to culture tubes for subculturing during the Screen. Agar plates are prepared as usual.
(§22) Overnight cultures are prepared by inoculating from stock cultures into the 75 ml flasks of nutrient broth and incubating for 15 hours at 37° C.
(§23) The iodometrically characterized test solution is dispensed in 5 ml amounts to seven small stoppered flasks. The organisms are screened one at a time as follows:
(§24) A 0.2 ml portion of the overnight culture is inoculated into 5 ml of 0.9% NaCl for use in controls. A 0.2 ml portion of the overnight culture is inoculated into a flask containing 5 ml of the test solution, an automatic timer is simultaneously triggered and the solution mixed. At time intervals of 30 seconds, 1, 2, 3, 4, 5, 6, 7, 8, 9, and 10 minutes a loopful of the inoculated solution is subcultured into 5 ml of sterile nutrient broth and mixed by a Vortex Genie Mixer, the high dilution serving to stop the action of the compound. At the end of the ten minute screen, the entire procedure is repeated for each of the remaining six organisms. All of the subculture tubes are incubated at 37° C and checked for signs of growth by turbidity at 24 hr., 48 hr., 3, 5, and 7 days. The earliest subculture time at which no growth is present in the subculture tube is considered the endpoint and is recorded as that time, e.g., 7 minutes.
(§25) The test solution is prepared and characterized as above but is made up at twice the concentration desired. The solution is diluted 1:1 with Rehydrated Tissue Culture Dessicated Horse Serum, Difco #5357-72 and dispensed in a 5 ml amount to a small flask. The mixture is incubated at Room Temperature for 30 minutes to allow denaturation of the compound by the serum and then screened as above.
(§26) The 5 ml mixture of serum and test solution are prepared in sequence to allow as close to 30 minutes as possible before the beginning of the screen of each organism.
as §4

[9] = tested on: B. bronchiseptica; experiment: Contact germicidal efficiency (sterilization time); assay type: cell-based, Bordetella bronchiseptica
Method: as §14, §15, §16, §17, §18, §19, §20, §21, §22, §23, §24, §25, §26, §4

[10] = Example X, pH 4.6, no horse serum, IV c 404 ppm (69 PPMCl+), IV g 489 ppm (143 PPMCl+)
[11] = Example X, pH 7.0, no horse serum, IV c 1886 ppm (323 PPMCl+), IV g 409 ppm (120 PPMCl+)
[12] = Example X, pH 9.3, no horse serum, IV c 1704 ppm (292 PPMCl+), IV g 319 ppm (94 PPMCl+)
[13] = Example Y, pH 4.6, in presence of horse serum, 468 ppm (80 PPMCl+)

CC(C)(COC(=O)C(C)(C)C)NCl [IV c, 2-N-Chloroamino-2-methyl-1-propyl 2,2-dimethylproprionate]
MIC [1]: > 250 µg/mL
MIC [2]: > 250 µg/mL
MIC [3]: > 125 µg/mL
MIC [4]: > 250 µg/mL
MIC [5]: > 250 µg/mL
MIC [6]: > 250 µg/mL
MIC [7]: > 250 µg/mL
Sterilization Time [8, 10]: 0.5 min
Sterilization Time [8, 11]: 1 min
Sterilization Time [8, 12]: 1 min
Sterilization Time [8, 13]: > 10 min
Sterilization Time [9, 10]: 0.5 min
Sterilization Time [9, 11]: 1 min
Sterilization Time [9, 12]: 1 min
Sterilization Time [9, 13]: > 10 min

From patent publication US4092420A, “Novel soft N-chloroamino alcohol derivatives exhibiting antibacterial activity” (INTERx Research Corporation, priority 1977, dated 1978)
